In patent US20230017045A1, “PYRIDINE AND PYRIMIDINE CARBOXYLATE HERBICIDES AND METHODS OF USE THEREOF” (Dow AgroSciences LLC, priority 2017, published 2023):

Test system: test plant species
Assay: Post-emergent herbicidal activity test (greenhouse, foliar spray, visual growth reduction)
Format: in vivo
Settings: post-emergence, 336 h, ALOMY: blackgrass (Alopecurus myosuroides), 140 g ai/ha, 14 days after application, read-out: Visual Growth Reduction (%) 14 Days After Application, ALOMY
Summary of the method: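 Visual percent injury (0-100) rated 14 d after treatment, relative to nontreated and solvent-blank plants. Test plants at first or second true leaf stage received an overhead track-sprayer application at 187 L/ha. Compounds were formulated in aqueous acetone/DMSO carrier containing crop oil concentrate and X-77 surfactant.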

Row | Structure (SMILES) | pest or weed control at 140 g/ha [%]
1 | CC(F)(F)c1ccc(-c2ccc(Cl)c(C(=O)O)n2)c(Cl)c1 [F111, 3-Chloro-6-(2-chloro-4-(1,1-difluoroethyl)phenyl) picolinic acid] | 60 to 74
2 | O=C(O)c1nc(-c2ccc(SC(F)(F)F)cc2)ccc1Cl [F94, 3-Chloro-6-(4-((trifluoromethyl)thio)phenyl)picolinic acid] | 0 to 29

Same assay, conditions: post-emergence, 336 h, AMARE: redroot pigweed (Amaranthus retroflexus), 140 g ai/ha, 14 days after application, read-out: Visual Growth Reduction (%) 14 Days After Application, AMARE

Row | Structure (SMILES) | pest or weed control at 140 g/ha [%]
3 | CC(F)(F)c1ccc(-c2ccc(Cl)c(C(=O)O)n2)c(Cl)c1 [F111, 3-Chloro-6-(2-chloro-4-(1,1-difluoroethyl)phenyl) picolinic acid] | 95 to 100
4 | O=C(O)c1nc(-c2ccc(SC(F)(F)F)cc2)ccc1Cl [F94, 3-Chloro-6-(4-((trifluoromethyl)thio)phenyl)picolinic acid] | 0 to 29

Same assay, conditions: post-emergence, 336 h, AVEFA: wild oat (Avena fatua), 140 g ai/ha, 14 days after application, read-out: Visual Growth Reduction (%) 14 Days After Application, AVEFA

Row | Structure (SMILES) | pest or weed control at 140 g/ha [%]
5 | CC(F)(F)c1ccc(-c2ccc(Cl)c(C(=O)O)n2)c(Cl)c1 [F111, 3-Chloro-6-(2-chloro-4-(1,1-difluoroethyl)phenyl) picolinic acid] | 60 to 74
6 | O=C(O)c1nc(-c2ccc(SC(F)(F)F)cc2)ccc1Cl [F94, 3-Chloro-6-(4-((trifluoromethyl)thio)phenyl)picolinic acid] | 0 to 29

Same assay, conditions: post-emergence, 336 h, CHEAL: lambsquarters (Chenopodium album), 140 g ai/ha, 14 days after application, read-out: Visual Growth Reduction (%) 14 Days After Application, CHEAL

Row | Structure (SMILES) | pest or weed control at 140 g/ha [%]
7 | CC(F)(F)c1ccc(-c2ccc(Cl)c(C(=O)O)n2)c(Cl)c1 [F111, 3-Chloro-6-(2-chloro-4-(1,1-difluoroethyl)phenyl) picolinic acid] | 95 to 100
8 | O=C(O)c1nc(-c2ccc(SC(F)(F)F)cc2)ccc1Cl [F94, 3-Chloro-6-(4-((trifluoromethyl)thio)phenyl)picolinic acid] | 0 to 29

Same assay, conditions: post-emergence, 336 h, CIRAR: canada thistle (Cirsium arvense), 140 g ai/ha, 14 days after application, read-out: Visual Growth Reduction (%) 14 Days After Application, CIRAR

Row | Structure (SMILES) | pest or weed control at 140 g/ha [%]
9 | CC(F)(F)c1ccc(-c2ccc(Cl)c(C(=O)O)n2)c(Cl)c1 [F111, 3-Chloro-6-(2-chloro-4-(1,1-difluoroethyl)phenyl) picolinic acid] | 95 to 100
10 | O=C(O)c1nc(-c2ccc(SC(F)(F)F)cc2)ccc1Cl [F94, 3-Chloro-6-(4-((trifluoromethyl)thio)phenyl)picolinic acid] | 30 to 44

Same assay, conditions: post-emergence, 336 h, CYPES: yellow nutsedge (Cyperus esculentus), 140 g ai/ha, 14 days after application, read-out: Visual Growth Reduction (%) 14 Days After Application, CYPES

Row | Structure (SMILES) | pest or weed control at 140 g/ha [%]
11 | CC(F)(F)c1ccc(-c2ccc(Cl)c(C(=O)O)n2)c(Cl)c1 [F111, 3-Chloro-6-(2-chloro-4-(1,1-difluoroethyl)phenyl) picolinic acid] | 0 to 29
12 | O=C(O)c1nc(-c2ccc(SC(F)(F)F)cc2)ccc1Cl [F94, 3-Chloro-6-(4-((trifluoromethyl)thio)phenyl)picolinic acid] | 0 to 29

Same assay, conditions: post-emergence, 336 h, DIGSA: crabgrass (Digitaria sanguinalis), 140 g ai/ha, 14 days after application, read-out: Visual Growth Reduction (%) 14 Days After Application, DIGSA

Row | Structure (SMILES) | pest or weed control at 140 g/ha [%]
13 | CC(F)(F)c1ccc(-c2ccc(Cl)c(C(=O)O)n2)c(Cl)c1 [F111, 3-Chloro-6-(2-chloro-4-(1,1-difluoroethyl)phenyl) picolinic acid] | 85 to 94
14 | O=C(O)c1nc(-c2ccc(SC(F)(F)F)cc2)ccc1Cl [F94, 3-Chloro-6-(4-((trifluoromethyl)thio)phenyl)picolinic acid] | 0 to 29

Same assay, conditions: post-emergence, 336 h, ECHCG: barnyardgrass (Echinochloa crus-galli), 140 g ai/ha, 14 days after application, read-out: Visual Growth Reduction (%) 14 Days After Application, ECHCG

Row | Structure (SMILES) | pest or weed control at 140 g/ha [%]
15 | CC(F)(F)c1ccc(-c2ccc(Cl)c(C(=O)O)n2)c(Cl)c1 [F111, 3-Chloro-6-(2-chloro-4-(1,1-difluoroethyl)phenyl) picolinic acid] | 95 to 100
16 | O=C(O)c1nc(-c2ccc(SC(F)(F)F)cc2)ccc1Cl [F94, 3-Chloro-6-(4-((trifluoromethyl)thio)phenyl)picolinic acid] | 0 to 29

Same assay, conditions: post-emergence, 336 h, IPOHE: ivy-leaf morning glory (Ipomoea hederacea), 140 g ai/ha, 14 days after application, read-out: Visual Growth Reduction (%) 14 Days After Application, IPOHE

Row | Structure (SMILES) | pest or weed control at 140 g/ha [%]
17 | CC(F)(F)c1ccc(-c2ccc(Cl)c(C(=O)O)n2)c(Cl)c1 [F111, 3-Chloro-6-(2-chloro-4-(1,1-difluoroethyl)phenyl) picolinic acid] | 95 to 100
18 | O=C(O)c1nc(-c2ccc(SC(F)(F)F)cc2)ccc1Cl [F94, 3-Chloro-6-(4-((trifluoromethyl)thio)phenyl)picolinic acid] | 60 to 74

Same assay, conditions: post-emergence, 336 h, KCHSC: kochia (Bassia scoparia), 140 g ai/ha, 14 days after application, read-out: Visual Growth Reduction (%) 14 Days After Application, KCHSC

Row | Structure (SMILES) | pest or weed control at 140 g/ha [%]
19 | CC(F)(F)c1ccc(-c2ccc(Cl)c(C(=O)O)n2)c(Cl)c1 [F111, 3-Chloro-6-(2-chloro-4-(1,1-difluoroethyl)phenyl) picolinic acid] | 95 to 100
20 | O=C(O)c1nc(-c2ccc(SC(F)(F)F)cc2)ccc1Cl [F94, 3-Chloro-6-(4-((trifluoromethyl)thio)phenyl)picolinic acid] | 0 to 29

Same assay, conditions: post-emergence, 336 h, ORYSA: rice (Oryza sativa), 140 g ai/ha, 14 days after application, read-out: Visual Growth Reduction (%) 14 Days After Application, ORYSA

Row | Structure (SMILES) | pest or weed control at 140 g/ha [%]
21 | CC(F)(F)c1ccc(-c2ccc(Cl)c(C(=O)O)n2)c(Cl)c1 [F111, 3-Chloro-6-(2-chloro-4-(1,1-difluoroethyl)phenyl) picolinic acid] | 0 to 29
22 | O=C(O)c1nc(-c2ccc(SC(F)(F)F)cc2)ccc1Cl [F94, 3-Chloro-6-(4-((trifluoromethyl)thio)phenyl)picolinic acid] | 0 to 29

Same assay, conditions: post-emergence, 336 h, SETFA: giant foxtail (Setaria faberi), 140 g ai/ha, 14 days after application, read-out: Visual Growth Reduction (%) 14 Days After Application, SETFA

Row | Structure (SMILES) | pest or weed control at 140 g/ha [%]
23 | CC(F)(F)c1ccc(-c2ccc(Cl)c(C(=O)O)n2)c(Cl)c1 [F111, 3-Chloro-6-(2-chloro-4-(1,1-difluoroethyl)phenyl) picolinic acid] | 75 to 84
24 | O=C(O)c1nc(-c2ccc(SC(F)(F)F)cc2)ccc1Cl [F94, 3-Chloro-6-(4-((trifluoromethyl)thio)phenyl)picolinic acid] | 0 to 29

Same assay, conditions: post-emergence, 336 h, SORVU: grain sorghum (Sorghum vulgare), 140 g ai/ha, 14 days after application, read-out: Visual Growth Reduction (%) 14 Days After Application, SORVU

Row | Structure (SMILES) | pest or weed control at 140 g/ha [%]
25 | CC(F)(F)c1ccc(-c2ccc(Cl)c(C(=O)O)n2)c(Cl)c1 [F111, 3-Chloro-6-(2-chloro-4-(1,1-difluoroethyl)phenyl) picolinic acid] | 85 to 94
26 | O=C(O)c1nc(-c2ccc(SC(F)(F)F)cc2)ccc1Cl [F94, 3-Chloro-6-(4-((trifluoromethyl)thio)phenyl)picolinic acid] | 0 to 29

Same assay, conditions: post-emergence, 336 h, STEME: common chickweed (Stellaria media), 140 g ai/ha, 14 days after application, read-out: Visual Growth Reduction (%) 14 Days After Application, STEME

Row | Structure (SMILES) | pest or weed control at 140 g/ha [%]
27 | O=C(O)c1nc(-c2ccc(SC(F)(F)F)cc2)ccc1Cl [F94, 3-Chloro-6-(4-((trifluoromethyl)thio)phenyl)picolinic acid] | 0 to 29

Same assay, conditions: post-emergence, 336 h, TRZAS: wheat, spring (Triticum aestivum), 140 g ai/ha, 14 days after application, read-out: Visual Growth Reduction (%) 14 Days After Application, TRZAS

Row | Structure (SMILES) | pest or weed control at 140 g/ha [%]
28 | CC(F)(F)c1ccc(-c2ccc(Cl)c(C(=O)O)n2)c(Cl)c1 [F111, 3-Chloro-6-(2-chloro-4-(1,1-difluoroethyl)phenyl) picolinic acid] | 75 to 84
29 | O=C(O)c1nc(-c2ccc(SC(F)(F)F)cc2)ccc1Cl [F94, 3-Chloro-6-(4-((trifluoromethyl)thio)phenyl)picolinic acid] | 0 to 29
